Experimental data taken from patent US20250099465A1, “REMIBRUTINIB FOR USE IN THE TREATMENT OF HIDRADENITIS SUPPURATIVA” (NOVARTIS AG, priority 2022, published 2025).
Several values for one entry are separate records, joined by “and”; a condition that tells them apart may be missing. Identical values can stand only once. Like-named read-outs stand apart in the source and are kept apart here.

Legend:
[1] = higher dose treatment arms; cited from earlier work
[2] = tested on: HS explant cultures; settings: cited from earlier work
[3] = tested on: B cells; settings: case study; cited from earlier work
[4] = HS patients; cited from earlier work
[5] = Co-administration of LOU064 with oral contraceptives; settings: in vivo
From the text: Therefore, in a preferred embodiment, LOU064 is co-administered with oral contraceptives.

[6] = 52-week open label extension study in CSU subjects (interim analyses); type: in vivo;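 note: Open-label extension assessing long-term safety and tolerability in CSU patients previously enrolled in the Phase 2b trial, dosed at 100 mg b.i.d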
Method: In a 52-week open label extension study to evaluate the long-term safety and tolerability of LOU064 in eligible subjects with CSU who participated in the Phase 2b study the dose used was 100 mg b.i.d.
Table 4 presents the safety summary observed in the Phase 2b study up to the cut-off date for the interim analysis.

[7] = Phase 2b randomized, double-blind, placebo-controlled core study in CSU patients; type: in vivo
Method: In a Phase 2b, randomized, double-blind, placebo-controlled trial evaluating the efficacy and safety of LOU064 over 12 weeks in patients inadequately controlled by […], with at least moderately active chronic spontaneous urticaria (CSU), patients received LOU064 10 mg q.d. (once daily), 35 mg q.d., 100 mg q.d., 10 mg b.i.d. (twice daily), 25 mg b.i.d., 100 mg b.i.d., or placebo (1:1:1:1:1:1:1 ratio).
(Table 5) In the long-term exposure of the ES (median 35.14 wks, N=183), the proportion of patients with at least one adverse effect (AE) on remibrutinib treatment (57.4% [n=105]) was similar to the CS (presented through for any remibrutinib dose) (58.1% [n=155]; median 12.14 wks, N=267). In the ES, there were 4 serious adverse effects (SAEs), 6 AEs leading to treatment discontinuation and no deaths. The incidences of AEs by […] (SOC) reported in the ES and CS were similar: infections and infestations (23.0% and 24.0%), followed by skin/subcutaneous tissue disorder (17.5% and 16.9%) (Table 5). […] Incidence of AESI in the ES such as infections (23%), bleeding (4.4%) and cytopenias (0.5%) were in line with the CS. Newly occurring notable transaminase increases were single in both ES (isolated ALT>3×ULN, normalized within 4 weeks, in 1 patient discontinued early for personal reasons) and CS (ALT>5×ULN in 1 patient, normalised on treatment).

[8] = target: T1, BTK (Homo sapiens, UniProt Q06187); settings: single or multiple doses 0.5 mg to 600 mg up to 18 days; 100 and 200 mg b.i.d. up to 12 days; cited from earlier work
T1 construct: simulate BTK occupancy in human spleen/tissues; from tissue; host or cells: human spleen / lymph node / peripheral tissue B cells (simulated, not measured)
T1 sequence (Q06187 whole entry): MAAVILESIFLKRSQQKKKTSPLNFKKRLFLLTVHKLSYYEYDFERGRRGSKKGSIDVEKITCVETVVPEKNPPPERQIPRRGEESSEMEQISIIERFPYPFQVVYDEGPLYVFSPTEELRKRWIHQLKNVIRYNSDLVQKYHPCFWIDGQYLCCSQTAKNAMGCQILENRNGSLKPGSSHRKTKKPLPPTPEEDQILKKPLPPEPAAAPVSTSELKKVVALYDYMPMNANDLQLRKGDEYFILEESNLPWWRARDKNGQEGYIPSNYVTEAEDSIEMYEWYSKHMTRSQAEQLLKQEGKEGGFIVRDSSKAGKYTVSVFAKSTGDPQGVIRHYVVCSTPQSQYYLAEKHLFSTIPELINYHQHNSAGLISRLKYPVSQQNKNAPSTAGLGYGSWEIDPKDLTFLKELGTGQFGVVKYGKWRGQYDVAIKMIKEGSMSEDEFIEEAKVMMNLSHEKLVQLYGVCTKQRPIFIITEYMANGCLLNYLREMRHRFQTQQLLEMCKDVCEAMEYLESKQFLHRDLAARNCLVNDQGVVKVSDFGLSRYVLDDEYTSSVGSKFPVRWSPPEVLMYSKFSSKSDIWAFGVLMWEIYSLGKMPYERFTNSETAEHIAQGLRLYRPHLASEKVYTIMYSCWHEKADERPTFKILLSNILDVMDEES

[9] = target: T1, BTK; assay: Phase I clinical study (Kaul et al. 2021): PK, BTK occupancy in blood, short-term safety; type: in vivo
From the text: BTK occupancy in blood is not an informative biomarker for the purpose of dose selection due to LOU064 pharmacological properties (irreversible binding). […] Occupancy in tissue may be more representative of the expected efficacy of LOU064.
Pharmacokinetic data from a Phase I clinical study reported by Kaul et al. (2021) were used in the current analysis, including 102 patients.
A population PK model has been developed to describe the interim PK from a Phase I clinical study reported by Kaul et al. (2021). […] Overall the resulting population model described the PK data reasonably well.

[10] = human, in vivo; cited from earlier work
[11] = cited from earlier work
[12] = 100 mg B.I.D., N = 100, interim analysis cut off 31 Aug. 2020
[13] = 100 mg b.i.d., N = 100 interim analysis
[14] = ES, CSU patients, 100 mg b.i.d., N = 183, median 35.14 wks, listed as remibrutinib
[15] = Phase 2b core and extension study
[16] = CS, CSU patients, Any dose, N = 267, listed as remibrutinib

## C[C@H]1CN(C2COC2)CCN1c1ccc(Nc2cc(-c3ccnc(N4CCn5c(cc6c5CC(C)(C)C6)C4=O)c3CO)cn(C)c2=O)nc1 [fenebrutinib]
[1]
  subjects with transient grade 3 elevations of ALT and/or AST: 8.3% and 6.3%

## rituximab: B-cell depletor, CD20 antagonist
[2]
  effect in HS explant cultures: anti-inflammatory effects
[3]
  outcome of HS treatment using B-cell depletion: successful treatment of HS

## adalimumab
[4]
  patients with suboptimal therapeutic responses: ~40%

## C=CC(=O)N(C)CCOc1c(N)ncnc1-c1cc(F)cc(NC(=O)c2ccc(C3CC3)cc2F)c1C [LOU064, N-(3-(6-amino-5-(2-(N-methylacrylamido)ethoxy)pyrimidin-4-yl)-5-fluoro-2-methylphenyl)-4-cyclopropyl-2-fluorobenzamide]
[5]
  impact on exposure and efficacy of co-administered oral contraceptives (ethinylestradiol or levonorgestrel): without a major impact on their exposure and efficacy
[6]; [12]
  Death: 0 n (%)
  Discontinued study due to an SAE(s): 0 n (%)
  Discontinued study due to any AE(s): 0 n (%)
  Non-fatal SAE: 3 (3.0) n (%)
  Treatment interruption due to AE(s): 5 (5.0) n (%)
  Treatment interruption due to SAE(s): 1 (1.0) n (%)
[6]; 100 mg B.I.D., N = 100, interim analysis cut off 31 Aug. 2020, median exposure 17.86 weeks
  Patients with AE(s): 58 (58) n (%)
[6]; 100 mg b.i.d., 100 subjects, median exposure 17.86 weeks
  safety signal: No safety signal has been observed
[6]; [13]
  SAEs reported (ovarian cyst, chest pain, appendicitis; none related to study drug): Three
  SOC Infections and infestations: 14%
  SOC Skin and subcutaneous tissue disorders: 13%
  adverse event preferred term: diarrhea: 4%
  adverse event preferred term: dizziness: 3%
  adverse event preferred term: gastroenteritis: 3%
  adverse event preferred term: headache: 6%
  bleeding events or events under SOC Blood and lymphatic system disorders: no bleeding events
  subjects who experienced at least one treatment emergent AE: 58%
[6]; 100 mg b.i.d., up to 52 weeks
  dose-limiting liver enzyme elevations and other off-target-effects: does not induce any dose-limiting liver enzyme elevations and other off-target-effects
[6]; ES, 100 mg b.i.d., N=183
  Incidence of AESI: bleeding: 4.4%
  Incidence of AESI: cytopenias: 0.5%
  Incidence of AESI: infections: 23%
  Newly occurring notable transaminase increases: isolated ALT>3×ULN, normalized within 4 weeks: 1 patient
[6]; ES, 100 mg b.i.d., N=183, median 35.14 wks
  deaths: no deaths
[6]; ES, CSU patients, 100 mg b.i.d., N = 183, median 35.14 wks
  AEs by primary system organ class: Skin and subcutaneous tissue disorders: 32 n
[6]; [14]
  AEs by PT: Headache: 6.6%
  AEs by primary system organ class: Infections and infestations: 23.0%
  AEs by primary system organ class: Skin and subcutaneous tissue disorders: 17.5%
  Discontinued study treatment due to AE(s): 6 n
  Patients with SAE(s): 4 n
[6]; [15]
  ECG findings or QT of >500 ms: no significant ECG findings or QT of >500 ms noted in any patient
  analysis of laboratory parameters: did not reveal significant safety concerns
  vital signs: no clinically meaningful changes
[6]; whole dose range, 100 mg bid up to 52 wks, patients with CSU
  safety profile over longer-term exposure: no new safety signals
[7]; 25 mg b.i.d. regimen, 12 weeks, CSU inadequately controlled by antihistamines
  efficacy in CSU compared to the other doses: particularly effective
[7]; [16]
  AEs by PT: Headache: 9.7%
  AEs by primary system organ class: Infections and infestations: 24.0%
  AEs by primary system organ class: Skin and subcutaneous tissue disorders: 16.9%
[7]; CS, any remibrutinib dose
  Newly occurring notable transaminase increases: ALT>5×ULN, normalised on treatment: 1 patient
[8]
  Short-term safety: has been shown
[9]; doses lower than 50 mg, no difference at higher doses
  change in clearance after repeated dosing: lower clearance at steady state at Day 12 when compared to Day 1
[9]; low doses
  BTK occupancy in blood: reaches full occupancy even at low doses

## CC#CC(=O)N1CCC[C@H]1c1nc(-c2ccc(C(=O)Nc3ccccn3)cc2)c2c(N)nccn12 [Acalabrutinib]
[10]
  commonly observed adverse reactions: infection, headache, and diarrhea

## C=CC(=O)N1CCC(CNc2ncnc(N)c2-c2ccc(Oc3ccccc3)cc2)CC1 [evobrutinib]
[11]; 75 mg b.i.d., Phase II clinical studies
  dose-limiting side effects: dose-limiting liver enzyme elevations

## C=CC(=O)N1CCC[C@@H](n2c(=O)n(-c3ccc(Oc4ccccc4)cc3)c3c(N)nccc32)C1 [tolebrutinib]
[11]; human, in vivo
  dose-limiting side effects: dose-limiting diarrhea
